Reference: publication PMC10584170, “Machine learning-based phenotypic imaging to characterise the targetable biology of Plasmodium falciparum male gametocytes for the development of transmission-blocking antimalarials” (PLOS Pathogens, 2023)
Read-outs that look alike come from different tables or passages of the source.

What was measured:
[1] = system: P. falciparum male gametocytes; assay: P. falciparum Dual Gamete Formation Assay (PfDGFA), male readout (exflagellation); type: cell-based, Plasmodium falciparum NF54; conditions: for Selectivity Ratio M: HepG2 Tox50 versus male IC50; for IC50: PfDGFA, 24 h incubation with gametocytes before induction, exflagellation readout, read-out: Male IC50; for HitlevelM: number of replicates with >50% inhibition in the male readout
Summary of the method: (§1)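 Day-14 NF54 gametocytes were incubated with compound for 24 h at 37°C under 1% O2/3% CO2/96% N2. Gametogenesis was triggered with ookinete medium (0.1 μM xanthurenic acid) plus Cy3-anti-Pfs25, and exflagellation was imaged by brightfield after cooling to 4°C then 28°C. Females were imaged by Pfs25 fluorescence 24 h later at 28°C.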

[2] = system: P. falciparum female gametocytes; assay: P. falciparum Dual Gamete Formation Assay (PfDGFA), female readout (Pfs25-positive female gametes); type: cell-based, Plasmodium falciparum NF54; conditions: for Selectivity ratio F: HepG2 Tox50 versus female IC50; for IC50: PfDGFA, 24 h incubation with gametocytes before induction, female gamete readout, read-out: Female IC50; for HitlevelF: number of replicates with >50% inhibition in the female readout
Summary of the method: as §1

HepG2 cells = assay: HepG2 cytotoxicity counter-screen; conditions: cytotoxic activity against HepG2 cells
[3] = Plasmodium falciparum, 2µM, 24h preincubation with gametocytes, average of replicates, read-out: Average inhibition male (%)
[4] = Plasmodium falciparum, 2µM, 24h preincubation with gametocytes, replicate R1, read-out: % inhibition male (individual replicates) R1
[5] = Plasmodium falciparum, 2µM, 24h preincubation with gametocytes, replicate R2, read-out: % inhibition male (individual replicates) R2
[6] = Plasmodium falciparum, 2µM, 24h preincubation with gametocytes, replicate R3, read-out: % inhibition male (individual replicates) R3
[7] = Plasmodium falciparum, 2µM, 24h preincubation with gametocytes, replicate R4, read-out: % inhibition male (individual replicates) R4
[8] = Plasmodium falciparum, 2µM, 24h preincubation with gametocytes, average of replicates, read-out: Average inhibition female (%)
[9] = Plasmodium falciparum, 2µM, 24h preincubation with gametocytes, replicate R1, read-out: % inhibition female (individual replicates) R1
[10] = Plasmodium falciparum, 2µM, 24h preincubation with gametocytes, replicate R2, read-out: % inhibition female (individual replicates) R2
[11] = Plasmodium falciparum, 2µM, 24h preincubation with gametocytes, replicate R3, read-out: % inhibition female (individual replicates) R3
[12] = Plasmodium falciparum, 2µM, 24h preincubation with gametocytes, replicate R4, read-out: % inhibition female (individual replicates) R4
[13] = PfDGFA at 2µM, 24h preincubation with gametocytes, average of replicates
[14] = PfDGFA at 2µM, 24h preincubation with gametocytes, replicate R1
[15] = PfDGFA at 2µM, 24h preincubation with gametocytes, replicate R3
[16] = PfDGFA at 2µM, 24h preincubation with gametocytes, replicate R4

| IC50 ([1]; Plasmodium falciparum) [nM] | IC50 ([2]; Plasmodium falciparum) [nM] | SMILES | Selectivity Ratio M [1] | HitlevelM ([1]; 2µM) | Selectivity ratio F [2] | HitlevelF ([2]; 2µM) | Tox50 (HepG2 cells) [µM] | inhibition at 2 µM [1, 3] [%] | inhibition at 2 µM [1, 4] [%] | inhibition at 2 µM [1, 5] [%] | inhibition at 2 µM [1, 6] [%] | inhibition at 2 µM [1, 7] [%] | inhibition at 2 µM [2, 8] [%] | inhibition at 2 µM [2, 9] [%] | inhibition at 2 µM [2, 10] [%] | inhibition at 2 µM [2, 11] [%] | inhibition at 2 µM [2, 12] [%] | further results |
| --- | --- | --- | --- | --- | --- | --- | --- | --- | --- | --- | --- | --- | --- | --- | --- | --- | --- | --- |
| 1850 | 1300 | COc1cccc(C23NC(=Nc4nc5ccccc5[nH]4)NC2(c2cccc(OC)c2)NC(=Nc2nc4ccccc4[nH]2)N3)c1 (stereo not shown) [TCMDC-139087] | 17.52 | 4 | 24.94 | 0 | 32.37 | – | – | – | – | – | – | – | – | – | – | inhibition at 2 µM ([1]; Plasmodium falciparum, PfDGFA at 2µM, 24h preincubation with gametocytes, average of replicates, read-out: Average inhibition male (%)): 78.4%; inhibition at 2 µM ([1]; Plasmodium falciparum, PfDGFA at 2µM, 24h preincubation with gametocytes, replicate R1, read-out: % inhibition male (individual replicates) R1): 83%; inhibition at 2 µM ([1]; Plasmodium falciparum, PfDGFA at 2µM, 24h preincubation with gametocytes, replicate R2, read-out: % inhibition male (individual replicates) R2): 72.6%; inhibition at 2 µM ([1]; Plasmodium falciparum, PfDGFA at 2µM, 24h preincubation with gametocytes, replicate R3, read-out: % inhibition male (individual replicates) R3): 79%; inhibition at 2 µM ([1]; Plasmodium falciparum, PfDGFA at 2µM, 24h preincubation with gametocytes, replicate R4, read-out: % inhibition male (individual replicates) R4): 78.9%; inhibition at 2 µM ([2]; Plasmodium falciparum, PfDGFA at 2µM, 24h preincubation with gametocytes, average of replicates, read-out: Average inhibition female (%)): 28.9%; inhibition at 2 µM ([2]; Plasmodium falciparum, PfDGFA at 2µM, 24h preincubation with gametocytes, replicate R1, read-out: % inhibition female (individual replicates) R1): 18.4%; inhibition at 2 µM ([2]; Plasmodium falciparum, PfDGFA at 2µM, 24h preincubation with gametocytes, replicate R2, read-out: % inhibition female (individual replicates) R2): 40.4%; inhibition at 2 µM ([2]; Plasmodium falciparum, PfDGFA at 2µM, 24h preincubation with gametocytes, replicate R3, read-out: % inhibition female (individual replicates) R3): 9.2%; inhibition at 2 µM ([2]; Plasmodium falciparum, PfDGFA at 2µM, 24h preincubation with gametocytes, replicate R4, read-out: % inhibition female (individual replicates) R4): 47.7% |
| 950 | 1020 | c1ccc(-c2nc(Nc3nc4ccccc4[nH]3)[nH]c2-c2ccccc2)cc1 [TCMDC-139099] | 17.05 | – | 15.94 | – | 16.22 | 97.9 | 97.5 | 98.5 | 96.8 | 98.9 | 58.5 | 38.7 | 75.2 | 46.9 | 73.1 | – |
| 300 | 300 | Br.c1cc(Nc2nc(-c3ccc(-c4csc(Nc5ccncc5)n4)cc3)cs2)ccn1 [TCMDC-139725] | 15.17 | – | 15.01 | – | 4.53 | 95.5 | 101 | 98.4 | 91.3 | 91.8 | 92.1 | 90.8 | 87.3 | 93.4 | 96.9 | – |
| 1700 | 5920 | CN(C)c1ccnc2ccc(NC(=O)Nc3ccnc4ccccc34)cc12 [TCMDC-139749] | 13.31 | – | 3.83 | – | 22.68 | 96.1 | 97.3 | 94.7 | – | 96.1 | 29.2 | 32.7 | 28.8 | 22.7 | 32.6 | – |
| – | – | CC(Cc1ccc(C(=O)Nc2ccc(CC(C)NCCc3cccc(Cl)c3)cc2)cc1)NCCc1ccc(C(F)(F)F)cc1 (stereo not shown) [TCMDC-139790] | 2.39 | 4 | 3.01 | 1 | 3.76 | – | – | – | – | – | – | – | – | – | – | Average inhibition male (%) [1, 13]: 83.5%; % inhibition male (individual replicates) R1 [1, 14]: 92.2%; % inhibition male (individual replicates) R3 [1, 15]: 51.0%; % inhibition male (individual replicates) R4 [1, 16]: 92.9%; IC50 [1]: 1580 nM; Average inhibition female (%) [2, 13]: 37.4%; % inhibition female (individual replicates) R1 [2, 14]: 27.8%; % inhibition female (individual replicates) R3 [2, 15]: 24.4%; % inhibition female (individual replicates) R4 [2, 16]: 27.0%; IC50 [2]: 1250 nM |

| SMILES | IC50 ([1]; Plasmodium falciparum) [nM] | IC50 ([2]; Plasmodium falciparum) [nM] | Selectivity Ratio M [1] | HitlevelM ([1]; 2µM) | Selectivity ratio F [2] | HitlevelF ([2]; 2µM) | Tox50 (HepG2 cells) [µM] | inhibition at 2 µM [1, 3] [%] | inhibition at 2 µM [1, 4] [%] | inhibition at 2 µM [1, 5] [%] | inhibition at 2 µM [1, 6] [%] | inhibition at 2 µM [1, 7] [%] | inhibition at 2 µM [2, 8] [%] | inhibition at 2 µM [2, 9] [%] | inhibition at 2 µM [2, 10] [%] | inhibition at 2 µM [2, 11] [%] | inhibition at 2 µM [2, 12] [%] | further results |
| --- | --- | --- | --- | --- | --- | --- | --- | --- | --- | --- | --- | --- | --- | --- | --- | --- | --- | --- |
| COc1ccc2nc(N=C3NC4(c5ccccc5)NC(=Nc5nc6ccc(OC)cc6[nH]5)NC4(c4ccccc4)N3)[nH]c2c1.O=C(O)C(F)(F)F (stereo not shown) [TCMDC-139632] | 1160 | 5840 | 29.01 | – | 5.74 | – | 33.52 | 94.4 | 95.5 | 96.3 | 95.1 | 90.9 | 18.9 | 23.3 | 24.8 | 10.6 | 17.1 | – |
